Measurements: patent US20250296948A1, “SYNTHESIS OF NUCLEOSIDE DERIVATIVES” (Nucana plc, priority 2022, published 2025)

Tests used:
Assay type in all cases: physicochemical
[1] = 6 month dry powder stability, HPLC assay
From the text: (§1) NUC-3373 prepared according to Example 3 and Comparative Example 4 was packed into a transparent LDPE bag which was then filled with nitrogen and tied with a strip seal. This bag was then placed into another transparent LDPE bag which was also filled with nitrogen. A silica gel packet was placed between the two bags before the outermost bag was tied with a strip seal. These bags were then placed in a triple laminated sun light barrier bag which was sealed with a heat sealer. The bags were kept in a HDPE container.
(§2) NUC-3373 was initially assayed by HPLC after manufacture (0 months) then after 1 and 2 and/or 3 and 6 months of storage at 2-8° C., 25° C. or 40° C.

[2] = 6 month dry powder stability, Alpha Naphthol content by HPLC
From the text: as §1, §2
The Alpha Naphthol content of the same batches was also determined by HPLC. The levels of the alpha naphthol impurity is a key indicator of stability of the tested material.

[3] = Solution stability, alpha naphthol (0.60 RRT) in DMA:Saline (80:20 v/v); parameters: 0.60 RRT (Alpha Naphthol): unit not given here; conditions: 400 mg/mL in DMA:Saline (80:20 v/v)
Method: Stability data is also provided in Table 4, which compares the levels of alpha naphthol (0.60 RRT) present in solutions of 400 mg/mL NUC-3373, prepared by Example 3 or 4, above, in DMA:Saline (80:20 v/v) at different temperatures measured over set periods of time. The tested solutions are suitable for infusion and injection and the temperatures and times measured are representative of the environments that solutions suitable for infusion and injection would typically be stored in.
In Table 4 the two values provided for each temperature at each time period, separated by “/”, represent different preparations (samples) of that synthesis.

[4] = After 1 month at 2-8° C., first preparation (before "/")
[5] = After 1 month at 2-8° C., second preparation (after "/")
[6] = After 1 month at 25 ± 5° C., first preparation (before "/")
[7] = After 1 month at 25 ± 5° C., second preparation (after "/")
[8] = After 3 months at 2-8° C., first preparation (before "/")
[9] = After 3 months at 2-8° C., second preparation (after "/")
[10] = After 3 months at 25 ± 5° C., first preparation (before "/")
[11] = After 3 months at 25 ± 5° C., second preparation (after "/")
[12] = After 15 days at 2-8° C., first preparation (before "/")
[13] = After 15 days at 2-8° C., second preparation (after "/")
[14] = After 15 days at 25 ± 5° C., first preparation (before "/")
[15] = After 15 days at 25 ± 5° C., second preparation (after "/")

## C[C@H](NP(=O)(OC[C@H]1O[C@@H](n2cc(F)c(=O)[nH]c2=O)CC1O)Oc1cccc2ccccc12)C(=O)OCc1ccccc1 (stereo partly drawn) [Comparative Example 4, 5-fluoro-2′-deoxyuridine-5′-O-[1-naphthyl (benzoxy-L-alaninyl)] phosphate]
[1]; 2-8 ° C.
  Decrease after 6 months, HPLC assay: None
[1]; 2-8 ° C., 0 months
  HPLC assay (% w/w on anhydrous and solvent free basis): 100 % w/w
[1]; 2-8 ° C., 3 months
  HPLC assay (% w/w on anhydrous and solvent free basis): 100 % w/w
[1]; 2-8 ° C., 6 months
  HPLC assay (% w/w on anhydrous and solvent free basis): 100 % w/w
[1]; 25 ° C.
  Decrease after 6 months, HPLC assay: 0.1 % w/w
[1]; 25 ° C., 0 months
  HPLC assay (% w/w on anhydrous and solvent free basis): 99.7 % w/w
[1]; 25 ° C., 3 months
  HPLC assay (% w/w on anhydrous and solvent free basis): 99.5 % w/w
[1]; 25 ° C., 6 months
  HPLC assay (% w/w on anhydrous and solvent free basis): 99.6 % w/w
[1]; 40 ° C.
  Decrease after 6 months, HPLC assay: 2.0 % w/w
[1]; 40 ° C., 0 months
  HPLC assay (% w/w on anhydrous and solvent free basis): 99.7 % w/w
[1]; 40 ° C., 1 month
  HPLC assay (% w/w on anhydrous and solvent free basis): 99.3 % w/w
[1]; 40 ° C., 2 months
  HPLC assay (% w/w on anhydrous and solvent free basis): 99.0 % w/w
[1]; 40 ° C., 3 months
  HPLC assay (% w/w on anhydrous and solvent free basis): 99.3 % w/w
[1]; 40 ° C., 6 months
  HPLC assay (% w/w on anhydrous and solvent free basis): 97.7 % w/w
[2]; 2-8 ° C.
  Increase after 6 months, Alpha Naphthol by HPLC: None
[2]; 2-8 ° C., 0 months
  Alpha Naphthol by HPLC (% w/w): 0.09 % w/w
[2]; 2-8 ° C., 3 months
  Alpha Naphthol by HPLC (% w/w): 0.10 % w/w
[2]; 2-8 ° C., 6 months
  Alpha Naphthol by HPLC (% w/w): 0.09 % w/w
[2]; 25 ° C.
  Increase after 6 months, Alpha Naphthol by HPLC: 0.1 % w/w
[2]; 25 ° C., 0 months
  Alpha Naphthol by HPLC (% w/w): 0.09 % w/w
[2]; 25 ° C., 3 months
  Alpha Naphthol by HPLC (% w/w): 0.10 % w/w
[2]; 25 ° C., 6 months
  Alpha Naphthol by HPLC (% w/w): 0.10 % w/w
[2]; 40 ° C.
  Increase after 6 months, Alpha Naphthol by HPLC: 1.11 % w/w
[2]; 40 ° C., 0 months
  Alpha Naphthol by HPLC (% w/w): 0.09 % w/w
[2]; 40 ° C., 1 month
  Alpha Naphthol by HPLC (% w/w): 0.18 % w/w
[2]; 40 ° C., 2 months
  Alpha Naphthol by HPLC (% w/w): 0.27 % w/w
[2]; 40 ° C., 3 months
  Alpha Naphthol by HPLC (% w/w): 0.18 % w/w
[2]; 40 ° C., 6 months
  Alpha Naphthol by HPLC (% w/w): 1.2 % w/w
[3]; [4]
  0.60 RRT (Alpha Naphthol): 0.04/0.04
[3]; [5]
  0.60 RRT (Alpha Naphthol): 0.04/0.04
[3]; [6]
  0.60 RRT (Alpha Naphthol): 0.29/0.29
[3]; [7]
  0.60 RRT (Alpha Naphthol): 0.29/0.29
[3]; [8]
  0.60 RRT (Alpha Naphthol): 0.06/0.06
[3]; [9]
  0.60 RRT (Alpha Naphthol): 0.06/0.06
[3]; [10]
  0.60 RRT (Alpha Naphthol): 0.45
[3]; [11]
  0.60 RRT (Alpha Naphthol): 0.46
[3]; [12]
  0.60 RRT (Alpha Naphthol): 0.04/0.04
[3]; [13]
  0.60 RRT (Alpha Naphthol): 0.04/0.04
[3]; [14]
  0.60 RRT (Alpha Naphthol): 0.19
[3]; [15]
  0.60 RRT (Alpha Naphthol): 0.20
[3]; Initial
  0.60 RRT (Alpha Naphthol): 0.02

## C[C@H](NP(=O)(OC[C@H]1O[C@@H](n2cc(F)c(=O)[nH]c2=O)CC1O)Oc1cccc2ccccc12)C(=O)OCc1ccccc1 (stereo partly drawn) [Example 3, Batch 1, 5-fluoro-2′-deoxyuridine-5′-O-[1-naphthyl (benzoxy-L-alaninyl)] phosphate]
[1]; 2-8 ° C.
  Decrease after 6 months, HPLC assay: None
[1]; 2-8 ° C., 0 months
  HPLC assay (% w/w on anhydrous and solvent free basis): 100.4 % w/w
[1]; 2-8 ° C., 3 months
  HPLC assay (% w/w on anhydrous and solvent free basis): 101.5 % w/w
[1]; 2-8 ° C., 6 months
  HPLC assay (% w/w on anhydrous and solvent free basis): 100.4 % w/w
[1]; 25 ° C.
  Decrease after 6 months, HPLC assay: None
[1]; 25 ° C., 0 months
  HPLC assay (% w/w on anhydrous and solvent free basis): 100.4 % w/w
[1]; 25 ° C., 3 months
  HPLC assay (% w/w on anhydrous and solvent free basis): 101.1 % w/w
[1]; 25 ° C., 6 months
  HPLC assay (% w/w on anhydrous and solvent free basis): 100.8 % w/w
[1]; 40 ° C.
  Decrease after 6 months, HPLC assay: None
[1]; 40 ° C., 0 months
  HPLC assay (% w/w on anhydrous and solvent free basis): 100.4 % w/w
[1]; 40 ° C., 1 month
  HPLC assay (% w/w on anhydrous and solvent free basis): 100.0 % w/w
[1]; 40 ° C., 2 months
  HPLC assay (% w/w on anhydrous and solvent free basis): 101.5 % w/w
[1]; 40 ° C., 3 months
  HPLC assay (% w/w on anhydrous and solvent free basis): 101.6 % w/w
[1]; 40 ° C., 6 months
  HPLC assay (% w/w on anhydrous and solvent free basis): 100.7 % w/w
[2]; 2-8 ° C.
  Increase after 6 months, Alpha Naphthol by HPLC: None
[2]; 2-8 ° C., 0 months
  Alpha Naphthol by HPLC (% w/w): 0.15 % w/w
[2]; 2-8 ° C., 3 months
  Alpha Naphthol by HPLC (% w/w): 0.16 % w/w
[2]; 2-8 ° C., 6 months
  Alpha Naphthol by HPLC (% w/w): 0.15 % w/w
[2]; 25 ° C.
  Increase after 6 months, Alpha Naphthol by HPLC: None
[2]; 25 ° C., 0 months
  Alpha Naphthol by HPLC (% w/w): 0.15 % w/w
[2]; 25 ° C., 3 months
  Alpha Naphthol by HPLC (% w/w): 0.15 % w/w
[2]; 25 ° C., 6 months
  Alpha Naphthol by HPLC (% w/w): 0.14 % w/w
[2]; 40 ° C.
  Increase after 6 months, Alpha Naphthol by HPLC: None
[2]; 40 ° C., 0 months
  Alpha Naphthol by HPLC (% w/w): 0.15 % w/w
[2]; 40 ° C., 1 month
  Alpha Naphthol by HPLC (% w/w): 0.15 % w/w
[2]; 40 ° C., 2 months
  Alpha Naphthol by HPLC (% w/w): 0.15 % w/w
[2]; 40 ° C., 3 months
  Alpha Naphthol by HPLC (% w/w): 0.14 % w/w
[2]; 40 ° C., 6 months
  Alpha Naphthol by HPLC (% w/w): 0.13 % w/w
[3]; [4]
  0.60 RRT (Alpha Naphthol): 0.07/0.07
[3]; [5]
  0.60 RRT (Alpha Naphthol): 0.07/0.07
[3]; [6]
  0.60 RRT (Alpha Naphthol): 0.08/0.08
[3]; [7]
  0.60 RRT (Alpha Naphthol): 0.08/0.08
[3]; [8]
  0.60 RRT (Alpha Naphthol): 0.07/0.07
[3]; [9]
  0.60 RRT (Alpha Naphthol): 0.07/0.07
[3]; [10]
  0.60 RRT (Alpha Naphthol): 0.10
[3]; [11]
  0.60 RRT (Alpha Naphthol): 0.11
[3]; After 6 months at 2-8° C., first preparation (before "/")
  0.60 RRT (Alpha Naphthol): 0.07
[3]; After 6 months at 2-8° C., second preparation (after "/")
  0.60 RRT (Alpha Naphthol): 0.08
[3]; After 6 months at 25 ± 5° C., first preparation (before "/")
  0.60 RRT (Alpha Naphthol): 0.20
[3]; After 6 months at 25 ± 5° C., second preparation (after "/")
  0.60 RRT (Alpha Naphthol): 0.22
[3]; After 9 months at 2-8° C., first preparation (before "/")
  0.60 RRT (Alpha Naphthol): 0.07
[3]; After 9 months at 2-8° C., second preparation (after "/")
  0.60 RRT (Alpha Naphthol): 0.08
[3]; After 9 months at 25 ± 5° C., first preparation (before "/")
  0.60 RRT (Alpha Naphthol): 0.42
[3]; After 9 months at 25 ± 5° C., second preparation (after "/")
  0.60 RRT (Alpha Naphthol): 0.38
[3]; [12]
  0.60 RRT (Alpha Naphthol): 0.07/0.07
[3]; [13]
  0.60 RRT (Alpha Naphthol): 0.07/0.07
[3]; [14]
  0.60 RRT (Alpha Naphthol): 0.07
[3]; [15]
  0.60 RRT (Alpha Naphthol): 0.08
[3]; Initial
  0.60 RRT (Alpha Naphthol): 0.07
